US6950757B2, “Screening methods for identifying ligands” (Emerald BioStructures, Inc., priority 2001, dated 2005)

How the values were obtained:
Type in all cases: binding
[1] = target: T1, topo70-DNA covalent complex (Form 7 apo-crystals) (Homo sapiens, UniProt P11387); test: Crystal cracking of Form 7 crystals (crystal-cracking assay); settings: 16° C., approximately 3 hours
T1 construct: human topoisomerase I construct of residues Lys175 to Phe765; made in house; host or cells: baculovirus-insect cell (SF9)
T1 sequence (P11387 175-765): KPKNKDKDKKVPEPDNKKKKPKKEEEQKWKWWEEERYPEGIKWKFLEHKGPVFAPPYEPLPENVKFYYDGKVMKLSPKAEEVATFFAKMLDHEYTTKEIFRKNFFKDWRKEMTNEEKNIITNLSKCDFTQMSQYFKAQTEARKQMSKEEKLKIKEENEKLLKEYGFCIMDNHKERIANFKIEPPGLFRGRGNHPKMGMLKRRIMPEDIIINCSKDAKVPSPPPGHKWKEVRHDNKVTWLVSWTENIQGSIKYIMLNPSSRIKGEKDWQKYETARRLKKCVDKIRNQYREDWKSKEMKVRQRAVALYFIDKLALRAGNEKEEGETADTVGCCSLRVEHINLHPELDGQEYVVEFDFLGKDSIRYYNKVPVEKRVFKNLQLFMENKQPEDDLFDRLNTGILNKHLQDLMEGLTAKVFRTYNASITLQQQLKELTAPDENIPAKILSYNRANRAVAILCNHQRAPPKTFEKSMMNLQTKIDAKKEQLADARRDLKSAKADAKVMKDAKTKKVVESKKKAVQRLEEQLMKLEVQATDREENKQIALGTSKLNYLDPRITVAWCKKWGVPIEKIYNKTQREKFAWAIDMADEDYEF
Text: Cracking of the crystal after exposure to the potential ligand(s) indicates binding between at least one potential ligand and the macromolecule. This assay is referred to herein as the “crystal-cracking” assay.
The crystal cracking assay of the invention involves the development of optimized crystal growth conditions that depend on the absence of the ligand to produce a supply of macromolecule crystals, referred to herein as apo-crystals, then soaking the apo-crystals in a solution containing one or more potential ligands. If a ligand actually binds to the macromolecule, it initiates a conformational change in the crystal resulting in an observable cracking of the crystal.
Several rounds of similar optimization screening experiments eventually led to the identification of a definitive crystallization condition that produces crystals of the topo70-DNA covalent complex only in the absence of Topotecan (designate Form 7). The Form 7 crystals were grown at 16° C. under optimized conditions by vapor diffusion equilibration against a 500 microliter reservoir solution of 10% PEG 8000, 100 mM Tris-HCl pH 8.0, 100 mM Na/K phosphate pH 6.2, 100 mM KCl, and 10 mM DTT. The sitting drop crystallizations were prepared in drop chambers by mixing 2 microliters of reservoir solution with 2 microliters of 0.1 mM duplex DNA substrate in 6 mM NaCl, and 2 microliters 4 mg/ml topo70 in 10 mM Tris-HCl pH 7.5, 1 mM EDTA, and 1 mM DTT.
In order to test the effects of Topotecan and other topo I poisons on the integrity of Form 7 crystals, crystallization drops containing Form 7 crystals were subjected to the following treatments:
1. Injection of 3 microliters of a buffer solution containing 100 mM MES pH 6.3, and 100 mM Na/K phosphate pH 6.2 (buffer only control).
2. Injection of 3 microliters of 100 mM MES pH 6.3, 100 mM Na/K phosphate pH 6.2, and 0.32 mM Topotecan.
3. Injection of 3 microliters of 100 mM MES pH 6.3, 100 mM Na/K phosphate pH 6.2, 13% v/v DMSO, and 0.64 mM camptothecin.
4. […]

[2] = target: T2, topo70-DNA covalent complex (Homo sapiens, UniProt P11387); test: Crystal growth assay (crystal growth dependence on ligand), T80P CBS-cross solutions; settings: 16° C.
T2 construct: human topoisomerase I construct of residues Lys175 to Phe765; made in house; host or cells: baculovirus-insect cell (SF9)
T2 sequence (P11387 175-765): T1 sequence (P11387 175-765)
Experimental: The chemical components of each crystallization formulation were classified as being either a crystallant, buffer, or salt. The various crystallants were as follows:
CBS-cross crystallization screening formulations were prepared with all possible combinations of crystallants, buffers and salts.
In one set of crystallization experiments, the T80P crystallization screen was used in a Combinatorial Clover Plate developed by Emerald BioStructures, Inc. [Kim et al.], which allows for the rapid set up of multiple crystallizations in a common vapor diffusive environment.
The 24 reservoir chambers of the Combinatorial Clover Plate were filled with 1.0 milliliter of each of the 24 different T80P formulations. Once the T80P formulations had been individually placed into the reservoir chambers, 2 microliters of each individual crystallization screening formulation was placed into each of the four the sitting drop chambers that are connected to the common reservoir by dedicated vapor diffusion channels. This was followed by the addition of 1 microliter of duplex suicide oligonucleotide substrate (0.05 mM duplex, 6 mM NaCl) into the drop chamber.
The duplex was mixed with the crystallization screening solution by repeated pipetting. This was followed by the addition 0.1 microliter of 10 mM Topotecan to the upper two drop chambers of each crystallization clover. […]

[3] = target: T2, topo70-DNA covalent complex; test: Crystallization trials with VII-2 solutions in the absence or presence of Topotecan; settings: condition VII-2 #3; 1 microliter of 1 mM ligand in water vs water only; 16° C., several days
Experimental: The four different VII-2 formulations each contained one or more of the chemical components found in the lead crystallization conditions, plus additional components such as 10 mM DTT. The four VII-2 crystallization conditions were as follows:
A Cryschem tray was used to screen each of the four VII-2 crystallization solutions for their ability to promote crystallization of topo70-DNA complexes in the absence or presence of Topotecan, an analogue of camptothecin. The crystallization experiments were set up by first placing 500 microliters of the VII-2 screening solutions in duplicate individual reservoir chambers. Next, 3 microliters of each reservoir solution was placed into the drop chambers. The drop chamber solutions were then mixed by pipetting with 1.5 microliters of 0.05 mM suicide duplex oligonuceotide substrate in 6 mM NaCl. One microliter of 1 mM Topotecan in pure water or 1 microliter of pure water only was added to each of the duplicate drop chambers. Then 2 microliters of topo70 at 3 mg/ml in 10 mM Tris-HCl pH 7.5, 1 mM EDTA, and 1 mM DTT was added to each of the drop chambers. The crystallization tray was sealed with crystal clear sealing tape (marketed by Manco, Inc. Avon, Ohio), and incubated at 16° C.

[4] = injection of 3 microliters of 0.64 mM ligand in 100 mM MES pH 6.3, 100 mM Na/K phosphate pH 6.2, 13% v/v DMSO

SMILES: CC[C@@]1(O)C(=O)OCc2c1cc1n(c2=O)Cc2cc3cc4c(cc3nc2-1)OCO4 [10,11 MDO-camptothecin, 10,11 MDO camptothecin]
- effect on integrity of Form 7 crystals (crystal cracking) [1, 4]: had dissolved leaving only a trace pile of crystal bits

SMILES: CC[C@@]1(O)C(=O)OCc2c1cc1n(c2=O)Cc2cc3ccccc3nc2-1 [camptothecin]
- effect on integrity of Form 7 crystals (crystal cracking) [1, 4]: showed visible signs of micro cracks throughout the crystals

SMILES: O=C(O)CCCn1c2c(c3ccccc3c1=O)C(=O)c1ccccc1-2 [MJ-II-38]
- ligand-dependent crystal growth of ternary complex crystals ([2]; T80P #10, 0.5 microliter of 1 mM AG260 in 100% DMSO or 0.3 microliter of 1 mM MJ-II-38 in 90% v/v DMSO, several days): plate like crystals grew

SMILES: CC[C@@]1(O)C(=O)OCc2c1cc1n(c2=O)Cc2cc3c(CN(C)C)c(O)ccc3nc2-1 [Topotecan]
- growth of putative topo70-DNA covalent complex crystals (Form 7) with ligand present vs absent [3]: grow in condition VII-2 #3 only when Topotecan was absent
- effect on integrity of Form 7 crystals (crystal cracking) ([1]; injection of 3 microliters of 0.32 mM ligand in 100 mM MES pH 6.3, 100 mM Na/K phosphate pH 6.2): showed visible signs of micro cracks throughout the crystals
- ligand-dependent crystal growth (Form 9 crystals) ([2]; T80P #9 and T80P #10, 0.1 microliter of 10 mM ligand, day 28, no crystals when ligand absent): produced crystals of distinct block morphology when Topotecan was present
